According to patent publication US20210259954A1, “CILIA-TARGETING NANOPARTICLES” (Chapman University, priority 2019, published 2021):

What was measured:
[1] = test system: Tie2Cre⋅IFT88^flox/flox mice; assay: Working heart perfusion system, hearts of treated IFT88 mice; assay type: in vivo, mouse
primary cilia [2] = assay: In vitro cilia length, acetylated-α-tubulin immunofluorescence (Example 1); assay type: cell-based; conditions: after 16 hours, vs corresponding controls
Protocol: Immunocytochemistry. For the in vitro cilia length measurements, cells were grown on the Formvar® polymer, as mentioned above. Primary cilia consisting of acetylated microtubule structures were measured by direct immunofluorescence with acetylated-α-tubulin staining with 0, 2, 4, 8, 16, 24 and 32 hours of incubation with different concentrations (0.1-5 μg/mL) of CT-DAu-NPs or CT-PLGA-NPs. Likewise, materials without fenoldopam loading were used as corresponding controls for the CTNDDSs (cCT-DAu-NPs and cCT-PLGA-NPs) and also fenoldopam alone used. The cells were rinsed with sodium cacodylate buffer, fixed with 3% glutaraldehyde in 0.2 M sodium cacodylate buffer for 10 minutes, and permeabilized with 1% Triton-X in sodium cacodylate for 5 min. Acetylated-α-tubulin (1:10,000 dilution, Sigma) and the secondary antibodies were also diluted in 10% FBS to decrease the background florescence; FITC fluorescence secondary antibody (1:1000; Pierce, Inc.) was used. The cells were then washed three times for 5 minutes each with cacodylate buffer and mounted with DAPI (Vector laboratories). Confocal microscopic images were obtained using an inverted Nikon Eclipse Ti confocal microscope.

Pkd2 zebrafish = assay: Pkd2 morphant zebrafish ciliopathy model (Example 1); assay type: in vivo
Protocol: Animal Studies. All animal procedures were performed according to the University of California Irvine or Chapman University Animal Care and Use Committee Guidelines. To eliminate biases and subjective analyses, all animal studies were performed by double-blinded operators. Wild-type zebrafish AB strains were obtained from the Zebrafish International Resource Center. Embryos were injected with 1 mM morpholino oligos (GeneTools) at the 1-2 cell stage and cultured at 28.5° C. in sterile egg water. The following morpholino sequences were used: control scrambled MO: 5′-CCTCTTACCTCAGTTACAATTTATA-3′ (SEQ ID NO:1), Pkd2: 5′-AGGACGAACGCGACTGGGCTCATC-3′ (SEQ ID NO:2). The cardiac function was assessed by placing zebrafish on their dorsal axis to examine the relative locations of the ventricle and bulbus arteriosus, blood circulation and the heartbeat. Measurements of blood flow characteristics and heart parameters were performed using a Nikon Eclipse Ti microscope. NIS-Elements High Content AR 4.30.02 (Nikon) was used for the live tracking of the speed and acceleration of a single blood cell.

primary cilia [3] = assay: In vitro cilia length, immunocytochemistry (Example 2); assay type: cell-based, porcine; conditions: 16 h of treatment
Protocol: Immunocytochemistry and confocal microscopy. For the in vitro cilia length measurements, cells were grown on the Formvar® polymer, as mentioned above. […] Fenoldopam-alone was also used as another control. […] An antibody against acetylated-α-tubulin (1:10,000 dilution, Sigma-Aldrich) and the secondary antibodies were also diluted in 10% FBS to decrease the background florescence; a FITC-conjugated secondary antibody (1:1000; Pierce) was used. Cells were then washed three times for 5 minutes each with cacodylate buffer and sealed with mounting media containing DAPI (Vector Laboratories). […] Images were processed using NIS-Elements High Content AR 4.30.02 (Nikon). Automated image acquisition (ND acquisition) was conducted under the same ×60 magnification (selected area capturing option) field and Z-stack (0.1 μm slices) settings to create a 3D video. All imaging and video acquisition times and the microscope stage were automatically controlled (XY, XZ and YZ) by an automated perfect focusing system (PFS). The in vivo cilia length measurements and NP localizations in the zebrafish and mouse tissues were performed using the same method.

In the case of `Oc1ccc(C2CNCCc3c2cc(O)c(O)c3Cl)cc1` (stereo not drawn) [Fenoldopam, fenoldopam], the “CO, cardiac output” value ([1]; diltiazem stress) is reported as 1857 ± 137 µL/min, the “EDPVR, end-diastolic pressure volume relation” value ([1]; diltiazem stress) is reported as 0.13 ± 0.01 mmHg/μL and the “EF, ejection fraction” value ([1]; diltiazem stress) is reported as 51.6 ± 1.7%. For the same compound, the “ESPVR, end-systolic pressure volume relation” value ([1]; diltiazem stress) was 2.1 ± 0.1 mmHg/μL, the “HR, heart rate” value ([1]; diltiazem stress) was 104 ± 20 beat/min and the “LV EDP, end-diastolic pressure” value ([1]; diltiazem stress) was 5.1 ± 0.1 mmHg. For the same compound, the “LV EDV, end-diastolic volume” value ([1]; diltiazem stress) was 40.0 ± 0.1 µL, the “LV ESP, end-systolic pressure” value ([1]; diltiazem stress) was 30.2 ± 0.1 mmHg and the “LV ESV, end-systolic volume” value ([1]; diltiazem stress) was 19.4 ± 0.7 µL. The “LV Pmax, systolic pressure” value ([1]; diltiazem stress) was 40.2 ± 0.1 mmHg, the “SV, stroke volume” value ([1]; diltiazem stress) was 20.6 ± 0.7 µL and the “SW, stroke work” value ([1]; diltiazem stress) was 725 ± 20 mmHg · μL. For the same compound, the “dP/dtmax, maximum rate of LV pressure rise” value (from here on “dP/dtmax, maximum rate”) ([1]; diltiazem stress) was 3619 ± 111 mmHg/s, the “dP/dtmin, maximum rate of LV pressure fall” value (shortened to “dP/dtmin, maximum rate”) ([1]; diltiazem stress) was −1372 ± 330 mmHg/s and the “CO, cardiac output” value ([1]; epinephrine stress) was 7590 ± 176 µL/min. For the same compound, the “EDPVR, end-diastolic pressure volume relation” value ([1]; epinephrine stress) was 0.13 ± 0.01 mmHg/μL, the “EF, ejection fraction” value ([1]; epinephrine stress) was 78.2 ± 2.2% and the “ESPVR, end-systolic pressure volume relation” value ([1]; epinephrine stress) was 10.0 ± 1.1 mmHg/μL. The “HR, heart rate” value ([1]; epinephrine stress) was 241 ± 22 beat/min, the “LV EDP, end-diastolic pressure” value ([1]; epinephrine stress) was 5.3 ± 0.2 mmHg and the “LV EDV, end-diastolic volume” value ([1]; epinephrine stress) was 40.2 ± 0.1 µL. For the same compound, the “LV ESP, end-systolic pressure” value ([1]; epinephrine stress) was 64.5 ± 0.2 mmHg, the “LV ESV, end-systolic volume” value ([1]; epinephrine stress) was 8.7 ± 0.9 µL and the “LV Pmax, systolic pressure” value ([1]; epinephrine stress) was 56.0 ± 0.3 mmHg. For the same compound, the “SV, stroke volume” value ([1]; epinephrine stress) was 31.4 ± 0.8 µL, the “SW, stroke work” value ([1]; epinephrine stress) was 2538 ± 16 mmHg · μL and the “dP/dtmax, maximum rate” value ([1]; epinephrine stress) was 17206 ± 578 mmHg/s. The “dP/dtmin, maximum rate” value ([1]; epinephrine stress) was -3180 ± 120 mmHg/s, the “CO, cardiac output” value ([1]; vehicle) was 3780 ± 437 µL/min and the “EDPVR, end-diastolic pressure volume relation” value ([1]; vehicle) was 0.13 ± 0.01 mmHg/μL. For the same compound, the “EF, ejection fraction” value ([1]; vehicle) was 65.5 ± 3.5%, the “ESPVR, end-systolic pressure volume relation” value ([1]; vehicle) was 5.4 ± 0.7 mmHg/μL and the “HR, heart rate” value ([1]; vehicle) was 144 ± 32 beat/min. For the same compound, the “LV EDP, end-diastolic pressure” value ([1]; vehicle) was 5.1 ± 0.1 mmHg, the “LV EDV, end-diastolic volume” value ([1]; vehicle) was 40.1 ± 0.1 µL and the “LV ESP, end-systolic pressure” value ([1]; vehicle) was 54.3 ± 1.0 mmHg. The “LV ESV, end-systolic volume” value ([1]; vehicle) was 13.8 ± 1.4 µL, the “LV Pmax, systolic pressure” value ([1]; vehicle) was 72.4 ± 1.3 mmHg and the “SV, stroke volume” value ([1]; vehicle) was 26.3 ± 1.4 µL. The “SW, stroke work” value ([1]; vehicle) was 1767 ± 56 mmHg · μL, the “dP/dtmax, maximum rate” value ([1]; vehicle) was 7819 ± 140 mmHg/s and the “dP/dtmin, maximum rate” value ([1]; vehicle) was −1658 ± 190 mmHg/s. For the same compound, the cilia length (primary cilia [2]) was “significantly increased cilia length”, the “tolerability of bolus injection” value (Pkd2 zebrafish) was “tachycardia-associated death” and the cilia length (primary cilia [3]) was “increased the cilia length”.
